What was measured:
Assay type in all cases: cell-based
[1] = test system: Hs578T; test: Cell viability assay, Hs578T; details: Homo sapiens, Hs-578T, 72 h, TNBC, 3 days, read-out: Cellular Anti-proliferation activity (IC50)
Protocol: (§1) Cells were treated with CDK4/6 inhibitors palbociclib, ribociclib, or abemaciclib, or heterobifunctional compounds CPD-002 or CPD-031 following a 9-point serial dilution for 3 days.
(§2) Cells were seeded at a density of 2,000-5,000 cells per well in 96-well assay plates and treated with test compounds following a 10-point serial dilution for 3-6 days. Cell viability was determined using the CellTiter-Lumi assay kit according to the manufacturer's instructions. The dose-response curves were determined and IC50 values were calculated using the GraphPad Prism software following a nonlinear regression (least squares fit) method. Data presented was mean±standard deviation (SD) unless otherwise indicated.

[2] = test system: Calu-1; test: Cell viability assay, Calu-1; details: Homo sapiens, 72 h; Calu-1, NSCLC, 3 days; read-out: Cellular Anti-proliferation activity (IC50)
Protocol: as §1, §2

[3] = test system: KURAMOCHI; test: Cell viability assay, KURAMOCHI; details: 72 h, OC, 3 days, read-out: Cellular Anti-proliferation activity (IC50)
Protocol: as §1, §2

[4] = test system: BT-549; test: Cell viability assay, BT-549; details: Homo sapiens, 72 h; BT-549, TNBC, 3 days; read-out: Cellular Anti-proliferation activity (IC50)
Protocol: as §1, §2

[5] = test system: Cal-62; test: Cell viability assay, Cal-62; details: Homo sapiens, 72 h; Cal-62, TC, 3 days; read-out: Cellular Anti-proliferation activity (IC50)
Protocol: as §1, §2

[6] = test system: MDA-MB-157; test: Cell viability assay, MDA-MB-157; details: Homo sapiens, 72 h; MDA-MB-157, TNBC, 3 days; read-out: Cellular Anti-proliferation activity (IC50)
Protocol: as §1, §2

[7] = test system: NCI-H522; test: Cell viability assay, NCI-H522; details: Homo sapiens, 72 h; NCI-H522, NSCLC, 3 days; read-out: Cellular Anti-proliferation activity (IC50)
Protocol: as §1, §2

[8] = test system: OVCAR3; test: Cell viability assay, OVCAR3; details: Homo sapiens, OVCAR-3, 72 h; OVCAR3, OC, 3 days; read-out: Cellular Anti-proliferation activity (IC50)
Protocol: as §1, §2

[9] = test system: MDA-MB-453; test: Cell viability assay, MDA-MB-453; details: Homo sapiens, 72 h; MDA-MB-453, TNBC, 3 days; read-out: Cellular Anti-proliferation activity (IC50)
Protocol: as §1, §2

[10] = test system: MIA PaCa-2; test: Cell viability assay, MIA PaCa-2; details: Homo sapiens, 72 h; MIA PaCa-2, PC, 3 days; read-out: Cellular Anti-proliferation activity (IC50)
Protocol: as §1, §2

[11] = test system: MDA-MB-468; test: Cell viability assay, MDA-MB-468; details: Homo sapiens, 72 h; MDA-MB-468, TNBC, 3 days; read-out: Cellular Anti-proliferation activity (IC50)
Protocol: as §1, §2

[12] = test system: T47D cells; test: Flow cytometric analysis of Annexin V/7-AAD stained T47D cells; details: 6 days
Protocol: ER^+ breast cancer T47D cells were treated with DMSO, palbociclib, heterobifunctional compound CPD-343, or negative control compound CPD-380 for 6 days at doses approximating IC50 and IC90 concentrations determined in FIGS. 10A and 13. Cells were harvested by trypsinization, staining was carried out using the Annexin V Apoptosis Detection Kit. The percentages of early apoptotic (Annexin V^+7-AAD^−, lower right quadrant), late apoptotic (Annexin V^+7-AAD^+, upper right quadrant) and necrotic cells (Annexin V-7-AAD^+, upper left quadrant) are indicated on dot plots. […] Furthermore, we developed one ER^+ breast cancer T47D model with acquired resistance after long period of treatment with 1 μM palbociclib (over IC90). Cells were deemed resistant when growing in the presence of palbo at the same rate as parental cells. Palbo resistance was determined by CellTiter-Lumi cell viability assay.

[13] = test system: P300/CBP; test: P300/CBP cellular protein degradation
Protocol: Cultured cells were washed with cold PBS once and lysed in cold RIPA buffer supplemented with protease inhibitors and phosphatase inhibitors (Beyotime Biotechnology). The solutions were then incubated at 4° C. for 30 min with gentle agitation to fully lysed cells. Cell lysates were centrifuged at 13,000 rpm for 10 min at 4° C. and pellets were discarded. Total protein concentrations in the lysates were determined following BCA assays (Beyotime Biotechnology). Cell lysates were mixed with Laemmli loading buffer and heated at 99° C. for 5 min. Proteins were resolved on SDS-PAGE and visualized using Western ECL Substrate kits on a ChemiDoc MP Imaging system (Bio-Rad). Protein bands were quantitated using the Image Lab software provided by Bio-Rad.

Structure (SMILES) | IC50 [1] [µM] | IC50 [2] [µM] | IC50 [3] [µM] | IC50 [4] [µM] | IC50 [5] [µM] | IC50 [6] [µM] | IC50 [7] [µM] | IC50 [8] [µM] | IC50 [9] [µM] | IC50 [10] [µM] | IC50 [11] [µM] | Annexin V+ population ([12]; 100 nM) [%] | Annexin V+ population ([12]; 1 μM) [%] | P300/CBP Degradation (100 nM) [13]
CCN1CCN(Cc2ccc(Nc3ncc(F)c(-c4cc(F)c5nc(C)n(C(C)C)c5c4)n3)nc2)CC1 [abemaciclib] | 1.2 | 29 | 2.5 | 2.07 | 2.12 | > 10 | > 3 | > 10 | 0.03 | 0.55 | 3.09 |  |  | 
CN(C)C(=O)c1cc2cnc(Nc3ccc(N4CCNCC4)cn3)nc2n1C1CCCC1 [ribociclib] | > 10 | > 10 | > 10 | > 10 | > 10 | > 10 | > 10 | > 10 | > 3 | > 3 | > 10 |  |  | 
CC(=O)c1c(C)c2cnc(Nc3ccc(N4CCNCC4)cn3)nc2n(C2CCCC2)c1=O [Palbociclib, palbociclib] | > 10 | > 10 | > 10 | > 10 | > 10 | > 10 | > 10 | > 10 | 2.7 | > 3 | > 10 | 15.9 | 26.1 | 
CC(=O)N1CCc2c(c(N3CCCc4cc(-c5cnn(C)c5)c(C(F)F)cc43)nn2C2CCN(C(=O)CCCC(=O)Nc3ccccc3C(=O)Nc3nc(C)c([N+](=O)[O-])s3)CC2)C1 [CPD-200, 2-(5-(4-(5-Acetyl-3-(7-(difluoromethyl)-6-(1-methyl-1H-pyrazol-4-yl)-3,4-dihydroquinolin-1(2H)-yl)-4,5,6,7-tetrahydro-1H-pyrazolo[4,3-c]pyridin-1-yl)piperidin-1-yl)-5-oxopentanamido)-N-(4-methyl-5-nitrothiazol-2-yl)benzamide] |  |  |  |  |  |  |  |  |  |  |  |  |  | D (degradation activity < 30%)
CC(=O)N1CCc2c(c(N3CCCc4cc(-c5cnn(C)c5)c(C(F)F)cc43)nn2C2CCN(CC(=O)NCCCCCCCCCC(=O)Nc3ccccc3C(=O)Nc3nc(C)c([N+](=O)[O-])s3)CC2)C1 [CPD-217, 2-(10-(2-(4-(5-Acetyl-3-(7-(difluoromethyl)-6-(1-methyl-1H-pyrazol-4-yl)-3,4-dihydroquinolin-1(2H)-yl)-4,5,6,7-tetrahydro-1H-pyrazolo[4,3-c]pyridin-1-yl)piperidin-1-yl)acetamido)decanamido)-N-(4-methyl-5-nitrothiazol-2-yl)benzamide] |  |  |  |  |  |  |  |  |  |  |  |  |  | D (degradation activity < 30%)
CC(=O)N1CCc2c(c(N3CCCc4cc(-c5cnn(C)c5)c(C(F)F)cc43)nn2C2CCN(C(=O)CCCCC(=O)Nc3ccccc3C(=O)Nc3nc(C)c([N+](=O)[O-])s3)CC2)C1 [CPD-201, 2-(6-(4-(5-Acetyl-3-(7-(difluoromethyl)-6-(1-methyl-1H-pyrazol-4-yl)-3,4-dihydroquinolin-1(2H)-yl)-4,5,6,7-tetrahydro-1H-pyrazolo[4,3-c]pyridin-1-yl)piperidin-1-yl)-6-oxohexanamido)-N-(4-methyl-5-nitrothiazol-2-yl)benzamide] |  |  |  |  |  |  |  |  |  |  |  |  |  | D (degradation activity < 30%)

— patent US20250235543A1, “MODIFIED PROTEINS AND PROTEIN DEGRADERS” (Cullgen (Shanghai), Inc., priority 2021, published 2025)
